Measured values as given in ChEMBL document CHEMBL1131674, “Synthesis and cytotoxic activities of 6-chloro-7-arylamino-5,8-isoquinolinediones” (Bioorg Med Chem Lett, 1999).
Converted amounts (≈) assume the structure as drawn.

Tests used:
Type in all cases: functional, cell-based, Homo sapiens
[1] = tested on: SK-OV-3; assay: In vitro cytotoxic activity against SK-OV-3 (ovarian) using SRB (sulforhodamine B) assay
[2] = tested on: SK-MEL-2; assay: In vitro cytotoxic activity against SK-MEL-2 (melanoma) using SRB (sulforhodamine B) assay
[3] = tested on: HCT-15; assay: In vitro cytotoxic activity against HCT-15 (colon) using SRB (sulforhodamine B) assay
[4] = tested on: XF498; assay: In vitro cytotoxic activity against XF 498 (CNS) using SRB (sulforhodamine B) assay
[5] = tested on: A549; assay: In vitro cytotoxic activity against A 549 (non-small cell lung) using SRB (sulforhodamine B) assay
[6] = Homo sapiens, SK-OV-3, read-out: IC50
[7] = Homo sapiens, SK-MEL-2, read-out: IC50
[8] = Homo sapiens, HCT-15, read-out: IC50
[9] = Homo sapiens, XF498, read-out: IC50
[10] = Homo sapiens, A549, read-out: IC50

| Molecule | IC50 [1, 6] [µg/mL] | IC50 [2, 7] [µg/mL] | IC50 [3, 8] [µg/mL] | IC50 [4, 9] [µg/mL] | IC50 [5, 10] [µg/mL] | IC50 ([1]; sk-ov-3) [µg/mL] | IC50 ([2]; sk-mel-2) [µg/mL] | IC50 ([3]; hct-15) [µg/mL] | IC50 ([4]; xf498) [µg/mL] | IC50 ([5]; a549) [µg/mL] |
| --- | --- | --- | --- | --- | --- | --- | --- | --- | --- | --- |
| CCOc1ccc(NC2=C(Cl)C(=O)c3cccnc3C2=O)cc1 | 0.33 (≈ 1 µM) | 0.34 (≈ 1.03 µM) | 0.32 (≈ 0.973 µM) | 0.55 (≈ 1.67 µM) | 0.96 (≈ 2.92 µM) |  |  |  |  |  |
| CCOc1ccc(NC2=C(Cl)C(=O)c3ccncc3C2=O)cc1 | 0.34 (≈ 1.03 µM) | 0.04 (≈ 0.122 µM) | 0.03 (≈ 0.0913 µM) | 0.27 (≈ 0.821 µM) | 0.42 (≈ 1.28 µM) |  |  |  |  |  |
| Cc1ccc(NC2=C(Cl)C(=O)c3ccncc3C2=O)cc1 | 1.54 (≈ 5.16 µM) | 0.17 (≈ 0.569 µM) | 0.11 (≈ 0.368 µM) | 1.06 (≈ 3.55 µM) | 1.22 (≈ 4.08 µM) |  |  |  |  |  |
| O=C1C(Cl)=C(Nc2ccc(Cl)cc2)C(=O)c2ncccc21 | 1.33 (≈ 4.17 µM) | 1.3 (≈ 4.07 µM) | 0.34 (≈ 1.07 µM) | 3.31 (≈ 10.4 µM) | 5.03 (≈ 15.8 µM) |  |  |  |  |  |
| Cc1ccc(NC2=C(Cl)C(=O)c3cccnc3C2=O)cc1 | 1.27 (≈ 4.25 µM) | 0.42 (≈ 1.41 µM) | 0.33 (≈ 1.1 µM) | 1.26 (≈ 4.22 µM) | 1.14 (≈ 3.82 µM) |  |  |  |  |  |
| O=C1/C(=N/c2ccc(O)cc2)C(Cl)=C(O)c2cccnc21 | 1.27 (≈ 4.22 µM) | 0.47 (≈ 1.56 µM) | 0.86 (≈ 2.86 µM) | 0.97 (≈ 3.23 µM) | 1.56 (≈ 5.19 µM) |  |  |  |  |  |
| N#Cc1ccc(NC2=C(Cl)C(=O)c3ccncc3C2=O)cc1 | 0.21 (≈ 0.678 µM) | 0.22 (≈ 0.71 µM) | 0.13 (≈ 0.42 µM) | 0.3 (≈ 0.969 µM) | 0.8 (≈ 2.58 µM) |  |  |  |  |  |
| O=C1C(Cl)=C(Nc2ccc(CCO)cc2)C(=O)c2cnccc21 | 0.63 (≈ 1.92 µM) | 0.08 (≈ 0.243 µM) | 0.18 (≈ 0.548 µM) | 0.06 (≈ 0.183 µM) | 0.61 (≈ 1.86 µM) |  |  |  |  |  |
| O=C1C(Cl)=C(Nc2ccccc2)C(=O)c2cnccc21 | 0.86 (≈ 3.02 µM) | 0.52 (≈ 1.83 µM) | 0.1 (≈ 0.351 µM) | 0.96 (≈ 3.37 µM) | 1.28 (≈ 4.5 µM) |  |  |  |  |  |
| O=C1C(Cl)=C(Nc2ccc(Br)cc2)C(=O)c2ncccc21 | 0.92 (≈ 2.53 µM) | 1.26 (≈ 3.47 µM) | 0.34 (≈ 0.935 µM) | 2.83 (≈ 7.78 µM) | 4.28 (≈ 11.8 µM) |  |  |  |  |  |
| O=C1C(Cl)=C(Nc2ccccc2)C(=O)c2ncccc21 | 1.34 (≈ 4.71 µM) | 1.42 (≈ 4.99 µM) | 0.74 (≈ 2.6 µM) | 1.33 (≈ 4.67 µM) | 2.3 (≈ 8.08 µM) |  |  |  |  |  |
| O=C1C(Cl)=C(Nc2ccc(Cl)cc2)C(=O)c2cnccc21 | 1.86 (≈ 5.83 µM) | 1.22 (≈ 3.82 µM) | 0.31 (≈ 0.971 µM) | 1.54 (≈ 4.83 µM) | 1.27 (≈ 3.98 µM) |  |  |  |  |  |
| COc1ccc(NC2=C(Cl)C(=O)c3cccnc3C2=O)cc1 | 1.3 (≈ 4.13 µM) | 1.33 (≈ 4.23 µM) | 0.33 (≈ 1.05 µM) | 1.26 (≈ 4 µM) | 1.27 (≈ 4.04 µM) |  |  |  |  |  |
| O=C1C(Cl)=C(Nc2ccc(I)cc2)C(=O)c2cnccc21 | 0.29 (≈ 0.706 µM) | 0.23 (≈ 0.56 µM) | 0.1 (≈ 0.244 µM) | 0.22 (≈ 0.536 µM) | 1.96 (≈ 4.77 µM) |  |  |  |  |  |
| O=C1C(Cl)=C(Nc2ccc(F)cc2)C(=O)c2cnccc21 | 0.17 (≈ 0.562 µM) | 0.13 (≈ 0.429 µM) | 0.07 (≈ 0.231 µM) | 0.49 (≈ 1.62 µM) | 0.66 (≈ 2.18 µM) |  |  |  |  |  |
| O=C1C(Cl)=C(Nc2ccc(Br)cc2)C(=O)c2cnccc21 | 0.97 (≈ 2.67 µM) | 0.66 (≈ 1.82 µM) | 0.18 (≈ 0.495 µM) | 1.28 (≈ 3.52 µM) | 1.1 (≈ 3.03 µM) |  |  |  |  |  |
| N#Cc1ccc(NC2=C(Cl)C(=O)c3cccnc3C2=O)cc1 | 0.55 (≈ 1.78 µM) | 0.6 (≈ 1.94 µM) | 1.45 (≈ 4.68 µM) | 1.47 (≈ 4.75 µM) | 1.7 (≈ 5.49 µM) |  |  |  |  |  |
| O=C1C(Cl)=C(Nc2ccc(I)cc2)C(=O)c2ncccc21 | 1.62 (≈ 3.95 µM) | 3.3 (≈ 8.04 µM) | 1.27 (≈ 3.09 µM) | 3.61 (≈ 8.79 µM) | 4.29 (≈ 10.4 µM) |  |  |  |  |  |
| O=C1/C(=N/c2ccc(O)cc2)C(Cl)=C(O)c2ccncc21 | 0.3 (≈ 0.998 µM) | 0.06 (≈ 0.2 µM) | 0.05 (≈ 0.166 µM) | 0.32 (≈ 1.06 µM) | 0.36 (≈ 1.2 µM) |  |  |  |  |  |
| COc1ccc(NC2=C(Cl)C(=O)c3ccncc3C2=O)cc1 | 0.28 (≈ 0.89 µM) | 0.02 (≈ 0.0635 µM) | 0.02 (≈ 0.0635 µM) | 0.31 (≈ 0.985 µM) | 0.5 (≈ 1.59 µM) |  |  |  |  |  |
| O=C1C(Cl)=C(Nc2ccc(F)cc2)C(=O)c2ncccc21 | 0.5 (≈ 1.65 µM) | 1.39 (≈ 4.59 µM) | 0.18 (≈ 0.595 µM) | 0.36 (≈ 1.19 µM) | 1.25 (≈ 4.13 µM) |  |  |  |  |  |
| CCc1ccc(NC2=C(Cl)C(=O)c3cccnc3C2=O)cc1 | 1.35 (≈ 4.32 µM) | 1.97 (≈ 6.3 µM) | 1.39 (≈ 4.44 µM) | 0.66 (≈ 2.11 µM) | 1.35 (≈ 4.32 µM) |  |  |  |  |  |
| CCc1ccc(NC2=C(Cl)C(=O)c3ccncc3C2=O)cc1 | 0.34 (≈ 1.09 µM) | 0.07 (≈ 0.224 µM) | 0.05 (≈ 0.16 µM) | 0.33 (≈ 1.06 µM) | 0.62 (≈ 1.98 µM) |  |  |  |  |  |
| O=C1C(Cl)=C(Nc2ccc(CCO)cc2)C(=O)c2ncccc21 | 0.42 (≈ 1.28 µM) | 0.36 (≈ 1.1 µM) | 0.48 (≈ 1.46 µM) | 0.52 (≈ 1.58 µM) | 1.11 (≈ 3.38 µM) |  |  |  |  |  |
| COC1=C(N)C(=O)c2nc(-c3nc(C(=O)O)c(C)c(-c4ccc(OC)c(OC)c4O)c3N)ccc2C1=O [STREPTONIGRIN] | 0.28 (≈ 0.553 µM) | 0.02 (≈ 0.0395 µM) | 0.02 (≈ 0.0395 µM) | 0.31 (≈ 0.612 µM) | 0.33 (≈ 0.652 µM) |  |  |  |  |  |
| CISPLATIN |  |  |  |  |  | 2.07 | 1.38 | 2.9 | 2.74 | 1.8 |
